Reference: patent US10821079B2, “PKC activators and combinations thereof” (Cognitive Research Enterprises, Inc., priority 2011, dated 2020)

Assays:
[1] = test system: rat primary hippocampal neurons; assay: Neurotoxic effect of Aβ1-42 assemblies, MTT viability; format: cell-based; conditions: 20 hr
Protocol: (§1) Viability of cells was measured by MTT assay. MTT (3-(4,5-Dimethylthiazol-2-yl)-2,5-diphenyltetrazolium bromide) is a tetrazolium salt that is cleaved to formazan by the succinate dehydrogenase, which is only active in viable cells. After solubilization of the formazan, the amount of dye can be quantified with a microplate reader at 570 nm along with a reference of 630 nm. For MTT assay, 5×104 primary rat hippocampal neurons from 18-day-old embryonic Sprague-Dawley rat brains were plated on each well of 24-well plates coated with poly-D-lysine. After treatment, the cells were washed with 1×PBS and were incubated with 200 μl of 1 mg/ml MTT solution (Sigma, USA) at 37° C. for 2 hr. Then the MTT-solution was removed and the cells were lysed with 200 μl isopropanol containing 0.04 M HCl and 160 mM NaOH for 10 min. Finally, the reading was done at 570 nm and 630 nm. All the samples were done in triplicates and the data was represented as the percentage of control.
To assess the neurotoxic effect of different sized oligomers, rat primary hippocampal neurons were treated with variable concentrations of these Aβ1-42 species for 20 hr. Viability of the treated cells was compared to untreated cells using the MTT assay.

[2] = test system: primary rat hippocampal neurons; assay: Neuroprotection against ASPD induced toxicity, MTT, primary neurons; format: cell-based
Protocol: as §1
All studies used 50 nM ASPDs. The viability of the cells were measured by the MTT assay.

[3] = test system: PKC-ε; assay: PKC-ε level in primary neurons (immunofluorescence, Western Blot); format: cell-based, rat; conditions: primary neurons, 20 hr ASPD
Protocol: (§2) Cells were harvested in homogenizing buffer containing 10 mM Tris-Cl (pH 7.4), 1 mM PMSF (phenylmethylsulfonyl fluoride), 1 mM EGTA, 1 mM EDTA, 50 mM NaF, and 20 μM leupeptin and were lysed by sonication. The homogenate was centrifuged at 100,000×g for 15 min at 4° C. to obtain the cytosolic fraction (supernatant) and membrane (pellet). The pellet was resuspended in the homogenizing buffer by sonication. Protein concentration was measured using the Coomassie Plus (Bradford) Protein Assay kit (Pierce, USA). Following quantification, 20 μg of protein from each sample was subjected to SDS-PAGE analysis in 4-20% gradient Tris-Glycine gel (Invitrogen, USA). The separated protein was then transferred to nitrocellulose membrane. The membrane was blocked with BSA at room temperature for 15 min and was incubated with primary antibody over night at 4° C. After the incubation, it was washed three times with TBS-T (Tris Buffered saline-Tween 20) and further incubated with alkaline phosphatase conjugated secondary antibody (Jackson Immunoresearch Laboratories, USA) at 1:10,000 dilution for 45 min. The membrane was finally washed three times with TBS-T and developed using the 1-step NBT-BCIP substrate (Pierce, USA). Western Blot was imaged in the ImageQuant RT-ECL (GE Life Sciences, Piscataway, N.J.) and densitometric quantification was performed using the IMAL software (Blanchette Rockefeller Neurosciences Institute, Morgantown, W. Va.). For translocation assays, PKC activation was represented as the percentage of total protein in the membrane (membrane/cytosol+membrane).
Cells were grown in two chambered slides (Nunc, USA) at low density. For immunofluorescence staining, the cells were washed with PBS (pH 7.4) and fixed with 4% paraformaldehyde for 4 min. Following fixation, the cells were blocked and permeabilized with 5% serum and 0.3% Triton X 100 in 1×PBS for 30 min. […] Six individual fields at 63× oil lens magnification were analyzed for the mean fluorescence intensity (MFI) in each channel. […]

[4] = test system: synaptophysin; assay: Synaptophysin Western Blot in primary rat hippocampal neurons; format: cell-based; conditions: ASPD
Protocol: as §2

[5] = test system: differentiated human SH-SY5Y cells; assay: Neuroprotection against ASPD, MTT, SH-SY5Y cells; format: cell-based; conditions: ASPD alone
[6] = test system: PKC-ε; assay: PKC-ε translocation to membrane in SH-SY5Y cells (Western blot); format: cell-based, human; conditions: ASPD; ADDL at 20-fold higher concentrations
Protocol: as §2
Equal amounts of proteins were loaded in each lane (20 μg) for both the cytosol and membrane fractions. Activation of PKC was calculated as the percentage of total PKC in the membrane (membrane/cytosol+membrane).

[7] = test system: PKC-ε; assay: PKC-ε mRNA by RT-PCR in primary rat hippocampal neurons; format: cell-based; conditions: controls and ASPD-treated cells
Protocol: RNA was isolated from the cells using Trizol reagent (Invitrogen, USA) following the manufacturer's protocol. Briefly, 5 μg of total RNA was reverse transcribed using oligo (dT) and Superscript III (Invitrogen, USA) at 50° C. for 1 hr. Two μl of the cDNA product was amplified using primers for PKC-ε (Forward Primer—[…], Reverse primer—[…]), and β-tubulin (Forward Primer—[…], Reverse primer—[…]) (Origene, Rockville, Md.) for 25 cycles following standard PCR protocols and 55° C. annealing temperature. The PCR amplicons were analyzed in an E-Gel (Invitrogen, USA). The gel image was documented using a Fuji Image gel scanner (FLA-9000, Fuji Film) and densitometric quantification was performed using the IMAL software (Blanchette Rockefeller Neurosciences Institute, Morgantown, W. Va.). Data were represented as normalized ratio of PKC-ε OD (Optical Density) against β-tubulin OD for three independent experiments.
Primary neurons were treated with ASPD and/or DCPLA-ME. PKC-ε mRNA was quantified by RT-PCR as described above. RNA prepared from control and treated cultured primary rat hippocampal neurons were isolated and reverse transcribed. Individual cDNA was amplified for PKC-ε and β-actin. PKC-ε expression was normalized to β-actin.

[8] = test system: rat hippocampal primary neurons; assay: Synaptic marker immunofluorescence in rat hippocampal primary neurons; format: cell-based
Protocol: Cells were grown in two chambered slides (Nunc, USA) at low density. For immunofluorescence staining, the cells were washed with PBS (pH 7.4) and fixed with 4% paraformaldehyde for 4 min. Following fixation, the cells were blocked and permeabilized with 5% serum and 0.3% Triton X 100 in 1×PBS for 30 min. The cells were washed three times with 1×PBS and incubated with primary antibodies for 1 hr at 1:100 dilution. The incubation slides were then washed again three times in 1×PBS and were incubated with the FITC anti-rabbit IgG and Rhodamine anti-mouse IgG for 1 hr at 1:400 dilution. The cells were further washed and treated with DAPI (4′,6-diamidino-2′-phenylindole, dihydrochloride) (Thermo Scientific, USA) to stain the nucleus. Finally, the slides were washed and mounted in Pro Long Gold antifade mounting solution (Invitrogen, USA) and were viewed under the LSM 710 Meta confocal microscope (Zeiss) at 350 nm, 490 nm, and 540 nm excitation and 470 nm, 525 nm, and 625 nm emission for DAPI, FITC, and Rhodamine respectively. Six individual fields at 63× oil lens magnification were analyzed for the mean fluorescence intensity (MFI) in each channel. The co-localization correlation generated by the ZEN software (Zeiss).
To estimate the synaptic damage caused by the ASPDs on primary hippocampal neurons, the expression of synaptophysin (a presynaptic marker) and PSD-95 (a postsynaptic marker) was measured by immunofluorescence staining. […] Following a 20 hr incubation period, the cells were stained for nucleus, PSD-95, and synaptophysin. Expression levels were calculated as the change of percentage in mean fluorescence intensity compared to untreated cells.
Primary neurons, treated and untreated, were immunostained for MAP-2, synaptophysin, and PSD-95 to determine the synaptic integrity. […] Following a 20 hr incubation period, the cells were stained for MAP-2, PSD-95, and synaptophysin as described above.

[9] = 50 nM ASPD alone (ASPD) or with 100 nM DCPLA-ME, 20 hr
[10] = 50 nM ASPD alone (ASPD) or with RA and Bryostatin-1, 20 hr

## ASPD: amylospheroids, Aβ1-42 assemblies retained by a 100 kDa filter
[1]; 0.5 nM
  Viability of primary neuron (Mean ± SEM): 95.12 ± 0.733 % of control
[1]; 1 nM
  Viability of primary neuron (Mean ± SEM): 89.64 ± 5.99 % of control
[1]; 2 nM
  Viability of primary neuron (Mean ± SEM): 87.75 ± 0.94 % of control
[1]; 5 nM
  Viability of primary neuron (Mean ± SEM): 70.95 ± 1.89 % of control
[1]; 10 nM
  Viability of primary neuron (Mean ± SEM): 68.68 ± 0.84 % of control
[1]; 50 nM
  Viability of primary neuron (Mean ± SEM): 57.55 ± 3.35 % of control
  viability of neurons: 57.1±4.9%
[1]; 500 nM
  Viability of primary neuron (Mean ± SEM): 52.94 ± 3.75 % of control
[2]; 50 nM ASPD alone, 20 hr
  viability of primary neurons: 57.6±1.6%
[2]; 50 nM ASPDs alone (ASPD) or with the treatment named, 24 hr
  viability (Example 25): 57.61%±1.59
[3]
  PKC-ε immunofluorescence level compared to control: 60.81±5.85%
[4]
  decrease of synaptophysin expression by Western Blot: 26%
  synaptophysin expression by Western Blot: 73.30%±3.319
[5]
  viability compared to the untreated cells: 77.15±0.49%
[6]
  PKC-ε membrane translocation: 69.98±3.27%
  reduction of PKC-ε translocation: 46%
[7]
  PKC-ε transcript levels (in words): did not change PKC-ε mRNA significantly
[8]; [9]
  MAP-2 expression (mean fluorescence intensity): 40.7±6.2%
  PSD-95 expression (mean fluorescence intensity): 67.63±7.24%
  synaptophysin expression (mean fluorescence intensity): 63.3±3.8%
[8]; [10]
  Mean fluorescence intensity of PSD-95: 8.16±1.21
  Mean fluorescence intensity of synaptophysin: 9.74±2.5
[8]; 50 nM ASPD, 20 hr
  decrease of PSD-95 expression: 42%
[8]; 50 nM ASPDs, 1 μM ADDLs, 20 hr
  decrease in synaptophysin intensity: 40%
  synaptophysin intensity compared to the control: 62.45±6.74%
